Results reported in patent US20150368616A1, “METHODS FOR INDUCTION OF CELL FATES FROM PLURIPOTENT CELLS” (THE CLEVELAND CLINIC FOUNDATION, priority 2013, published 2015).
Residues, ends and D or L forms follow the SMILES beside them. *: point of attachment. Cbz = O=C(OCc1ccccc1)*

Key:
Ngn3 protein = Ngn3 protein stability and half-life in HepG2 cells, cycloheximide time course, Western blot; type: cell-based; settings: HepG2 cells exposed to MG132, CHX time course
Text: I. Protein stability and half-life assessment of Ngn3 in HepG2 cells. HepG2 cells were transfected with pTRE2-Ngn3 and pCMV-rtTA, treated with Doxycycline for 24 hr, and on the subsequent day pre-exposed to the proteasomal inhibitor MG132 for 5 hr. At time t=0, protein synthesis was inhibited by cycloheximide (CHX). Western blot using anti-Ngn3 antibodies are shown; b-actin served as a control, and remains stable. MG132 treatment leads to Ngn3 protein accumulation at t=0, and strongly stabilizes the protein, which rapidly decays in non-treated cells. J. Experiment conducted similarly as in I, but CMV-driven versions of Notch1 and Notch2 intracellular domains (N1ICD, N2ICD respectively) (left), or dominant-negative mastermind-like1 (DN-MAML1) were co-transfected with pTRE2-Ngn3. The left-most blot is overexposed to reveal the lower level of accumulated Ngn3 protein in presence of N1ICD, N2ICD, and the loss of Ngn3 upon CHX treatment. The analysis was done 1 hr post CHX treatment. […] K. Mouse pancreatic E14.5 explants were subjected to short-term treatment of CHX (1 hr) and MG132 (5 hr pre, and post-culture) as indicated. Total protein was isolated and subjected to anti-Ngn3 Western blotting. Levels of Ngn3 increase in presence of MG132, and decrease in response to CHX. Ngn3 protein levels increase correspondingly in presence of DAPT, a condition where the protein remains stable (CHX+DAPT lane). L. Stability measurements of Ngn3 in the presence of various cellular regulatory proteins. The experiment was conducted as in I and J. Decay scans (right) provide a measure of the decay rate of Ngn3. In all cases, the t=0 Ngn3 levels prior to CHX treatment is paralleled by the relative half-life of the protein. Destabilizing conditions include N1ICD, N2ICD, and Hes1. Stabilizing conditions include DN-MAML1 and DAPT-treatment. […] Hes1 is able to destabilize Ngn3 in the presence of DN-MAML1.
While Hes1 is known to directly repress Ngn3 expression, this would be an insufficient explanation for the observed results in which Ngn3 was driven by a Pdx1-tTA;tetO governed system. […] As destabilization of other bHLH factors, including NGN, and hASH1 has been observed, which has also implicated Notch, we then tested if a similar mechanism might operate in pancreas. As a means to mechanistically address this question, we first determined if Ngn3 protein half-life was regulated by proteasomal activity. Using three different heterologous cell lines (HepG2, Hek293, and CHO) conditionally expressing Ngn3, we observed a rapid turnover of Ngn3 protein after cycloheximide (CHX) addition; conditions where the control protein, beta-Actin, remained stable (FIG. 34I and data not shown). […]

endogenous Ngn3 = experiment: Mouse pancreatic E14.5 explants treated with CHX, MG132, DAPT; anti-Ngn3 Western blotting; type: cell-based; settings: E14.5 mouse pancreatic explants, MG132 5 hr
Text: I. Protein stability and half-life assessment of Ngn3 in HepG2 cells. HepG2 cells were transfected with pTRE2-Ngn3 and pCMV-rtTA, treated with Doxycycline for 24 hr, and on the subsequent day pre-exposed to the proteasomal inhibitor MG132 for 5 hr. At time t=0, protein synthesis was inhibited by cycloheximide (CHX). Western blot using anti-Ngn3 antibodies are shown; b-actin served as a control, and remains stable. MG132 treatment leads to Ngn3 protein accumulation at t=0, and strongly stabilizes the protein, which rapidly decays in non-treated cells. J. Experiment conducted similarly as in I, but CMV-driven versions of Notch1 and Notch2 intracellular domains (N1ICD, N2ICD respectively) (left), or dominant-negative mastermind-like1 (DN-MAML1) were co-transfected with pTRE2-Ngn3. The left-most blot is overexposed to reveal the lower level of accumulated Ngn3 protein in presence of N1ICD, N2ICD, and the loss of Ngn3 upon CHX treatment. The analysis was done 1 hr post CHX treatment. […]
While Hes1 is known to directly repress Ngn3 expression, this would be an insufficient explanation for the observed results in which Ngn3 was driven by a Pdx1-tTA;tetO governed system. […] As a means to mechanistically address this question, we first determined if Ngn3 protein half-life was regulated by proteasomal activity. […]

[1] = system: forward differentiating hES culture; experiment: Two stage protocol: Pan-CM 8 days then second stage medium with MG132, DAPT, forskolin, sodium propionate; transcript analysis; type: cell-based, human; settings: 8 days Pan-CM then second stage medium
Method: As a means to optimize the differentiation of insulin producing cells a two stage protocol was used in which pluripotent cultures were incubated in the presence of Pan-CM for 8 days as a means of generating pancreatic precursors cellular population. The medium these cultures were incubated in were subsequently changed to a medium designed to enhance differentiation of a pancreatic precursor towards a beta-cell terminal fate. All second stage experiments were performed in a medium composed of DMEM/F12 containing 12 mM Glucose supplemented with 1% B27, 1% Pyruvate, 1 uM Alk5 Inh II, 500 ng/ml Noggin and 0.5 uM (1,25 OH2)-Vit D3.
Among the compounds assayed for the ability to increase insulin production in a forward differentiating culture was the proteosomal inhibitor MG132 which we used in the previous example to stabilize Ngn3 protein. We also included the gamma secretase inhibitor DAPT, which was shown in the previous example to greatly increase beta-cell formation in the developing embryonic pancreatic explant study. We also included the short fatty acid salt sodium propionate, which acts as an agonist of short-chain fatty acid receptors. We also included the adenylyl cyclase activator forskolin. We also included the nuclear hormone receptor agonist 1,25 (OH)2)-Vit D3, which binds to, and activates the VDR protein. We also used intermediate concentrations of glucose, shown by others to increase formation of insulin producing cells from pluripotent derivatives. These compounds were used individually or in combination (as outlined in FIG. 37 panel A) to increase insulin-producing endocrine cell formation in a short term Pan-CM treated forward differentiating hES culture system.

[2] = system: Forward differentiating hES cultures; experiment: Pan-CM two weeks then maturation medium with daily MG132 pulse, transcript analysis; type: cell-based, human
Method: To successfully differentiate an insulin producing cell a two stage approach was developed. Schematically represented in panel A, pluripotent cultures were treated with Pan-CM for two weeks followed by a switch to a maturation medium (abbreviated MM within panel B) composed of DMEM/F12 with 12 mM glucose supplemented with 5 uM DAPT, 0.5 uM Vit D3, 1% B27, 1 uM Alk 5 Inhibitor and 1 mM Sodium Propionate. In addition cultures were treated with the proteasome inhibitor MG132 at 10 uM for a 4 hour pulse daily for the length of the experiment. We have previously shown that MG132 mediated inhibition of protein degradation promotes sustained Ngn3 signaling resulting in increased endocrine differentiation. […] Substantial increases in several of the endocrine specific genes are observed.
Forward differentiating hES cultures were incubated for two weeks in the presence of Pan-CM at which time culture conditions were changed to a defined maturation medium in addition to being treated daily with MG132. Control cultures remained within Pan-CM for the entire duration of the experiment. […] Transcript levels of Slc30A8, a gene associated with the transport of zinc during the processing of insulin, were increased ˜200 fold when forward differentiating cultures were exposed to MG132. […] It is important to note that while the absolute Glucagon transcript level fold increase was greater than that of insulin, when comparing the effects of forward differentiating cultures treated with Mg132 as to those which were solely treated with Pan-CM there was an ˜5 fold greater increase in relative Glucagon transcript levels as compared to an ˜24 fold greater increase in Insulin transcript levels. […] A similar low increase was also noted for the intestinal specific transcripts Cdx2 and Gucy2c genes, with only an ˜15 and ˜30 fold increase over hES transcript levels.
Also it is important to note that while all of the transcripts assayed throughout this series of experiments were increased in the cultures treated with MG132 the increase in pancreas specific transcripts was always far greater than the increases observed in non-pancreas specific transcripts (i.e., transcripts representative of the liver and intestines).

[3] = two weeks Pan-CM then maturation medium, MG132 daily

SMILES: CC(C)C[C@@H](C=O)NC(=O)[C@H](CC(C)C)NC(=O)[C@H](CC(C)C)NC(=O)OCc1ccccc1 [MG132, benzyl (S)-4-methyl-1-((S)-4-methyl-1-((S)-4-methyl-1-oxopentan-2-ylamino)-1-oxopentan-2-ylamino)-1-oxopentan-2-ylcarbamate] (Cbz-Leu-Leu-Leu-aldehyde)
- half-life of Ngn3 (T1/2) (Ngn3 protein): > 3 h
- loss of endogenous Ngn3 following exposure to CHX (endogenous Ngn3): abrogated
- Glucagon transcript levels [1]: remaining approximately the same as controls
- Hnf6 transcript increase [1]: ~90 fold
- Insulin transcript levels increase over controls [1]: ~80 fold
- Nkx6.1 transcript increase [1]: ~12.5 fold
- Pdx1 transcript increase [1]: ~40 fold
- AFP transcript increase [2]: ~85 fold
- Albumin transcript increase [2]: ~50 fold
- Cdx2 increase over hES transcript levels [2]: ~15 fold
- Glucagon transcript increase compared to cultures solely treated with Pan-CM [2]: ~5 fold
- Gucy2c increase over hES transcript levels [2]: ~30 fold
- Insulin transcript increase compared to cultures solely treated with Pan-CM [2]: ~24 fold
- effect of long incubations on the culture ([2]; forward differentiating culture): overall detrimental effect on the culture
- Glucagon absolute relative level over hES levels [2, 3]: ~2000 fold
- Insulin absolute relative level over hES levels [2, 3]: ~600 fold
- Mafa relative increase over control conditions [2, 3]: ~200 fold
- Pax4 relative increase over control conditions [2, 3]: ~300 fold
- Slc30A8 transcript levels increase [2, 3]: ~200 fold
